How the values were obtained:
sedges = assay: Ex26 PRE greenhouse; type: in vivo; details: 28 DAT, weed and rate in the words
From the text: Treatments were applied at the time of planting to yellow nutsedge, purple nutsedge, and benghal dayflower. […] Flats were watered and fertilized routinely after treatment application.

weeds; canola = assay: Ex34 PRE greenhouse; type: in vivo; details: rate in the words
From the text: (§1) Thereafter flats were watered and fertilized routinely.

Morningglory sp. = assay: Ex38 PRE 2,4-DC + pyroxasulfone, % control 28 DAT, Colby; type: in vivo, Ipomea spp
From the text: Pyroxasulfone plus fluthiacet-methyl (ANTHEM™, 23.3%) applied at 165 g ai/ha was included as a standard for comparison. […] Thereafter flats were watered and fertilized routinely.

weeds; Wheat and Barley = assay: Ex36 POST greenhouse; type: in vivo; details: rate in the words
From the text: Crops screened were wheat and barley.

Pennsylvania smartweed = assay: Ex15 PRE 2,4-DC + S-metolachlor, % control 28 DAT, Colby; type: in vivo, Polygonum pensylvanicum
From the text: (§2) The weeds tested in this study were redroot pigweed (Amaranthus retroflexus, AMARE), Jimsonweed (Datura stramonium, DATST), black nightshade (Solanum nigrum, SOLNI), large crabgrass (Digitaria sanguinalis, DIGSA), Pennsylvania smartweed (Polygonum pensylvanicum, POLPY), horseweed (Conyza canadensis, ERICA), wild buckwheat (Polygonum convolvulus, POLCO). The crop tested was Corn (var. Viking).
(§3) To determine PRE efficacy and corn injury, five rates of each 2,4 DC (36.7% CS) and S-metolachlor (Dual II Magnum®, 82.4%) were applied either alone or as tank-mix. 2,4 DC was applied at 0, 125, 170, 210, or 250 g ai/ha and S-metolachlor was applied at 0, 267, 534, 801, or 1070 g ai/ha. Additional treatments included application of premix of pyroxasulfone plus fluthiacet-methyl (Anthem™ 23.3%) at 169.9 g ai/ha and tank-mix of mesotrione (Callisto®, 40%) at 123 g plus S-metolachlor at 1252 g. Treatments were applied just after the planting of large crabgrass, Jimsonweed, black nightshade, redroot pigweed, Pennsylvania smartweed, horseweed, wild buckwheat, and corn.
(§4) Flats were watered and fertilized routinely after treatment application. Each treatment was replicated three times. […] Corn injury was rated for bleaching and stunting.

weeds = assay: Ex13 PRE greenhouse; type: in vivo; details: 28 DAT, weed and rate in the words
From the text: Pyroxasulfone (KIH-485, 85%) at 74.3 g ai/ha, pendimethalin (Prowl 3.3EC, 37.4%) at 1200 g ai/ha, or a premix of chlorsulfuron plus metsulfuron-methyl (Report Extra, 75%) at 15.8 g ai/ha were applied as commercial standards. […] Treatments were replicated 3 times and flats were watered after planting before the treatment and lightly watered after treatment application. Thereafter flats were watered and fertilized routinely.

yellow nutsedge (YN) = assay: PRE greenhouse, 2,4-DC + sulfentrazone, % control; type: in vivo, Cyperus esculentus; details: 28 DAT, g ai/ha by row: r8-16 2,4-DC 50/100/200 (3 rows each) + sulfentrazone 105/210/315 (cycling)
Method: Test compositions containing 2,4-DC Example 1B and sulfentrazone (Spartan® 4F, 39.6% active ingredient, FMC Corp.) and mixtures of 2-(2,4-dichlorophenyl)methyl-4,4-dimethyl-3-isoxazolidinone and sulfentrazone, were diluted with water to provide the appropriate test rate concentration.
The test weeds were Pennsylvania smartweed (PS) (Polygonum pennsylvanicum), Palmer amaranth (PA) (Amaranthus palmeri), velvetleaf (VL) (Abutilon theophrasti), green foxtail (GF) (Setaria viridis), morningglory (MG) (Ipomoea spp.), yellow nutsedge (YN) (Cyperus esculentus), purple nutsedge (PN) (Cyperus rotundus), and benghal dayflower (BD) (Commelina benghalensis). Crops included in the evaluation were corn, wheat, and cowpea.
For pre-emergence testing, four disposable fiber flats (6″ by 10″) for each rate of application of each herbicide solution were filled with top soil, to which seeds of each species were planted in furrows made by a template pressed on the top of the soil. The furrows with crop/weed seeds were covered with soil and were watered well before application of the test compounds. Flats designated for treatment were placed in a spray chamber having a static platform and a movable sprayer and height of the spray nozzle was 10.5 inches above the soil level. Once the sprayer was calibrated using water for spray volume of 30 gallons per acre, flats were sprayed with sprayer at a speed to receive a coverage equivalent of 30 gallons per acre.
The application rates are those shown in Table 3, 3A, an d 3B below for the individual herbicidal solutions and the herbicide compositions of the present invention. The pre-emergence flats were immediately placed in the greenhouse and watered lightly after treatment for herbicide activation. Thereafter they were regularly watered and feterilized for the duration of the test. The control of weeds was evaluated in each experimental test at 28 days after treatment (DAT), 14 DAT for crops. The results, shown as an average of the replications, were compared with results observed in untreated control flats in the same tests. Percent weed control was determined by a method similar to the 0 to 100 rating system disclosed in “Research Methods in Weed Science,” 2nd ed., B. Truelove, Ed.; Southern Weed Science Society; Auburn University, Auburn, Ala., 1977.

common chickweed = assay: Ex14 POST 2,4-DC + bromoxynil, % control 28 DAT, Colby; type: in vivo, Stellaria media
From the text: The study further assessed post crop safety on Wheat and Barley.
Nonionic surfactant at 0.5% (v/v) was included with commercial standards application. No adjuvant was applied with any other treatments. All plant species were direct seeded into 3″ plastic pots using metro-mix as growth media. At treatment application common lambsquarters was 1.75″, common chickweed was 2″, wild mustard was 2.25″, wild oat was 5.5″, wild buckwheat was 2-5″, Italian ryegrass was 2-3″, wheat was 5.5″, and barley was 4.5″ in height. Plants were watered well before application and not watered 24 h after application. Plants were watered and fertilized routinely after treatment application. Each treatment was replicated four times.

Black nightshade = assay: Ex15 PRE 2,4-DC + S-metolachlor, % control 28 DAT, Colby; type: in vivo, Solanum nigrum
From the text: as §2, §3, §4

weeds; canola, and wheat = assay: Ex39 PRE greenhouse; type: in vivo; details: weed and rate in the words
From the text: as §1

With `CC1(C)CON(Cc2ccc(Cl)cc2Cl)C1=O` [2,4-DC, 2-(2,4-dichlorophenyl)methyl-4,4-dimethyl-3-isoxazolidinone] the “weed control in words” value (sedges) was “alone did not provide control of sedges at any rate except benghal dayflower at 400 g”, the “weed control / crop safety in words” value (weeds; canola) was “applied alone at 31.2 g ai/ha controlled common chickweed, at 125 g controlled common lambsquarters and injured canola, at 250 g controlled blackgrass and Italian ryegrass” and the “X (% control, 2,4-DC alone)” value (Morningglory sp.; PRE, 2,4-DC 50 g ai/ha) was 0%. The “X (% control, 2,4-DC alone)” value (Morningglory sp.; PRE, 2,4-DC 100 g ai/ha) was 2%, the “X (% control, 2,4-DC alone)” value (Morningglory sp.; PRE, 2,4-DC 200 g ai/ha) was 2% and the “weed control / crop safety in words” value (weeds; Wheat and Barley) was “alone applied to barley was safe at 50 g ai/ha”. The X (Pennsylvania smartweed; 2,4-DC alone 125 g ai/ha) was 38%, the X (Pennsylvania smartweed; 2,4-DC alone 170 g ai/ha) was 67% and the X (Pennsylvania smartweed; 2,4-DC alone 210 g ai/ha) was 80%. The X (Pennsylvania smartweed; 2,4-DC alone 250 g ai/ha) was 78%, the “weed control in words” value (weeds) was “alone at all rates did not control most of the species” and the “% Control YN” value (yellow nutsedge (YN); r17-19 2,4-DC 50/100/200, r20-22 sulfentrazone 105/210/315, 50 g ai/ha) was 10%. For the same molecule, the “% Control YN” value (yellow nutsedge (YN); r17-19 2,4-DC 50/100/200, r20-22 sulfentrazone 105/210/315, 100 g ai/ha) was 12%, the “% Control YN” value (yellow nutsedge (YN); r17-19 2,4-DC 50/100/200, r20-22 sulfentrazone 105/210/315, 200 g ai/ha) was 13% and the X (common chickweed; 2,4-DC alone 125 g ai/ha) was 9%. For the same molecule, the X (common chickweed; 2,4-DC alone 170 g ai/ha) was 7%, the X (common chickweed; 2,4-DC alone 210 g ai/ha) was 14% and the X (common chickweed; 2,4-DC alone 250 g ai/ha) was 28%. The X (Black nightshade; 2,4-DC alone 125 g ai/ha) was 32%, the X (Black nightshade; 2,4-DC alone 170 g ai/ha) was 33% and the X (Black nightshade; 2,4-DC alone 210 g ai/ha) was 47%. The X (Black nightshade; 2,4-DC alone 250 g ai/ha) was 50% and the “weed control in words” value (weeds; canola, and wheat) was “alone at ≥50 g ai/ha controlled (≥85%) Canada thistle, dandelion, or common chickweed”.
